Ki data for one compound are collected here from ChEMBL document CHEMBL3639344, “Fused heterocyclic compounds as orexin receptor modulators” (2014).

Assay [1] has as its target T1, Orexin/Hypocretin receptor type 1 (Homo sapiens, UniProt O43613).
T1 sequence (O43613 whole entry): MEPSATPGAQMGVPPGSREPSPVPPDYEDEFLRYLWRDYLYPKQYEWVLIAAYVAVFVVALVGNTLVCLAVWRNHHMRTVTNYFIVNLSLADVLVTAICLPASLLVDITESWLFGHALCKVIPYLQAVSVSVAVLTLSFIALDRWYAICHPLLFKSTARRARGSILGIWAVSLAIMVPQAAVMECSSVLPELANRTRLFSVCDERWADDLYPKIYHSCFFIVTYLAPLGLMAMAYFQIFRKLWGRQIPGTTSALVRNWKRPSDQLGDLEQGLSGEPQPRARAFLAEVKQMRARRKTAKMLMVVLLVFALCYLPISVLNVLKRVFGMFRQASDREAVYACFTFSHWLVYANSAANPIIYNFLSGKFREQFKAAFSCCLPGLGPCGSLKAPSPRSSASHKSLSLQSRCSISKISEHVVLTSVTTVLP
Nature of the assay: (§1) Radioligand Binding: Chinese ovary cells (CHO) stably expressing human orexin 1 receptor (Genebank accession number […]) were grown to confluency in DMEM/F12 (Gibco, Cat #11039), 10% FBS, 1× Pen/Strep, 600 μg/mL G418 media on 150 cm2 tissue culture plates, washed with 5 mM EDTA in PBS (HyClone Dulbecco's Phoshpate Buffered Saline 1× with Calcium and Magnesium, Cat #SH30264.01, hereafter referred to simply as PBS) and scraped into 50 ml tubes. After centrifugation (2K xG, 10 min at 4° C.), the supernatant was aspirated and the pellets frozen and stored at −80° C. Cells were resuspended in PBS in the presence of 1 tablet of protease inhibitor cocktail (Roche, Cat. #11836145001) per 50 mL. Format: cell-based.

Another assay deals with T2, Orexin receptor type 2 (Homo sapiens, UniProt O43614).
T2 sequence (O43614 whole entry): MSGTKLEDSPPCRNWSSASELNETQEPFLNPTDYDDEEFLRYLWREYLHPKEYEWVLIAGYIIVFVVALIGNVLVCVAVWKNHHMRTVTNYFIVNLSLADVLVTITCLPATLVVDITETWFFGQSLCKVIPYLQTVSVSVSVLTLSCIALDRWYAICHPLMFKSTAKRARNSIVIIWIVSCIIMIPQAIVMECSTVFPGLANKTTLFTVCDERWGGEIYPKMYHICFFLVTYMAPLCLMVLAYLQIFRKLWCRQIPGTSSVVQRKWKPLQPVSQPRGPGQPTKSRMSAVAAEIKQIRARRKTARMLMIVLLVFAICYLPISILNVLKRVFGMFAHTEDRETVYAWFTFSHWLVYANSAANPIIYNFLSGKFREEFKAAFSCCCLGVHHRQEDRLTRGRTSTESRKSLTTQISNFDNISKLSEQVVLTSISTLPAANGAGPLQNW
Described as §1, with “HEK293” for “Chinese ovary cells (CHO)”, “orexin-2” for “orexin 1”, “#11039), in DMEM,” for “#11039),”, “Pen/Strep, 1× NaPyruvate, 1×HEPES,” for “Pen/Strep,”, “ug/ml” for “μg/mL”, “Phosphate” for “Phoshpate”.

`Cc1cc(C)nc(N2C[C@@H]3CCN(C(=O)c4ccccc4-c4nc(C)no4)C[C@@H]32)n1`: the Ki (commonly the equilibrium dissociation constant of an inhibitor or competing ligand from its target) in assay [1] is 1.59 µM; on Orexin receptor type 2 it was 0.059 µM.
